Tests used:
CEL [1] = target: T1, CEL (Homo sapiens, UniProt P19835); experiment: Serum HDL, LDL and VLDL cholesterol in a patient with suboptimal HDL given a CEL inhibitor; assay type: in vivo; conditions: daily oral dose 1 mg per kg, two weeks
T1 construct: The patient takes a daily oral dose of 1 mg per kg body of weight; from tissue; host or cells: whole organism: patient (endogenous enzyme)
T1 sequence (P19835 21-753): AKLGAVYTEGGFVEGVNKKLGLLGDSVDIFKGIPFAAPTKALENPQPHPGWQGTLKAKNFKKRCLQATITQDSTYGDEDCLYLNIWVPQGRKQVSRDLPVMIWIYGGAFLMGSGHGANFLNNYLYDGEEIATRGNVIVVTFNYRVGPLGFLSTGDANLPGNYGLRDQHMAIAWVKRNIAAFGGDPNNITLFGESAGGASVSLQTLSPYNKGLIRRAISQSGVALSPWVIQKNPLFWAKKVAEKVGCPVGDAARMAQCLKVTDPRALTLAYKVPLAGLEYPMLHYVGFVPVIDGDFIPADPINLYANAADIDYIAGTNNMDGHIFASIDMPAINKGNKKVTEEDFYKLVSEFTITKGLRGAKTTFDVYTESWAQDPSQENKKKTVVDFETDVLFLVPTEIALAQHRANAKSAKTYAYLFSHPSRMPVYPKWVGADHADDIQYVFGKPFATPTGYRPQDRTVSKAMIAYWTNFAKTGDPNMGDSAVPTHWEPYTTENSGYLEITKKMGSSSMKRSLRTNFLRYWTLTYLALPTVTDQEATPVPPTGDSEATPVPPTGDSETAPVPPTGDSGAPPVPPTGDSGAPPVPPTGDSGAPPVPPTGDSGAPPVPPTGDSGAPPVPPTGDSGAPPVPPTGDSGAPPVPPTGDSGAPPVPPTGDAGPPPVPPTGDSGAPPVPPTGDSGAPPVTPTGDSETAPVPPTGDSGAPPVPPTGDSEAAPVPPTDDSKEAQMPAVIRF
Experimental: (§1) A patient with suboptimal HDL cholesterol level, which is not the result of a known genetic or other predisposing condition, is prescribed (1,5-dimethylhexyl)carbamic acid 4-phenoxyphenyl ester to raise serum HDL levels. The patient takes a daily oral dose of 1 mg per kg body of weight for a period of two weeks, after which serum cholesterol in HDL, LDL, and VLDL is again measured. It is determined that HDL cholesterol has increased by 15-20%, that the ratio of HDL:LDL has increased, and that VLDL is decreased, such that risk for cardiovascular disease is reduced.
as §1, with “4-methyl-1-piperidinecarboxylic” for “(1,5-dimethylhexyl)carbamic”

CEL [2] = target: T2, CEL (Mus musculus, UniProt Q64285); experiment: Daily fecal cholesterol (neutral sterol) excretion in mice fed CEL inhibitor in chow (reverse cholesterol transport); assay type: in vivo; conditions: C57BL/6 mice
T2 construct: from tissue; host or cells: whole animal: wild-type C57BL/6 mice (CEL made by pancreas and liver)
T2 sequence (Q64285 21-599): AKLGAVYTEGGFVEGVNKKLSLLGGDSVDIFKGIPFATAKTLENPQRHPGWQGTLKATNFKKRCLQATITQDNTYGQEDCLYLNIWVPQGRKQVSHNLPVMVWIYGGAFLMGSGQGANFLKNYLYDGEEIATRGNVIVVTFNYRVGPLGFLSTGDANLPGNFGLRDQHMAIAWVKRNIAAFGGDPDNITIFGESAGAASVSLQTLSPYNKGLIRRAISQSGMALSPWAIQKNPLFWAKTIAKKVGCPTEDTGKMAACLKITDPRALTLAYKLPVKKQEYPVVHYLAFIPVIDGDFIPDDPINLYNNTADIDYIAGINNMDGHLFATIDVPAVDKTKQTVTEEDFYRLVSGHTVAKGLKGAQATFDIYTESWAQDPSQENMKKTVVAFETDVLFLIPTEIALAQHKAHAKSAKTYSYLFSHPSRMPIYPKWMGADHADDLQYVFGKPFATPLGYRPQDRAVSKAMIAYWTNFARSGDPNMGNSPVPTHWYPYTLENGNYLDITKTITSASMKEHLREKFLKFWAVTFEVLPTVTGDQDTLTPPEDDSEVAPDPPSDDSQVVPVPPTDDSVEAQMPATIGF
Experimental: FIG. 8. Excretion of neutral sterol mass is increased by feeding CEL inhibitor (1,5-dimethylhexyl)carbamic acid 4-phenoxyphenyl ester to normal C57BL/6 mice. Inhibitor was mixed with standard rodent chow and fed to mice after baseline excretion was determined. Sterol excretion was again determined after 2 weeks of inhibitor treatment. The change from baseline is plotted for each mouse (n=13).
Animals were individually housed in cages fitted with a wire platform with full access to food and water. After a 1 or 2 day acclimation period, feces were collected for 72 h and sterols were quantitated using a variation of the method described by Post et al. (Post, et al., Increased fecal bile acid excretion in transgenic mice with elevated expression of human phospholipid transfer protein. Arterioscler. Thromb. Vasc. Biol. 23:892-97 (2003)). After being dried and weighed, fecal material was ground to a fine powder. 5α-cholestane (40 μg) and [24-^14C]-taurocholic acid (0.02 μCi) were added to 0.5 g of the ground fecal material as internal standards for extraction efficiency of neutral and acidic sterols, respectively. The fecal material plus standards were suspended in 10 volumes of alkaline methanol (0.2 M NaOH in 80% methanol), incubated at 80° C. for 2 hr, and neutral sterols were separated by 3 extractions with equal volumes of petroleum ether. The combined organic fractions were evaporated under nitrogen, resuspended in hexane, and a portion was used to measure neutral sterols by gas chromatography (Shimadzu Scientific Instruments). Data reported represent the sum of areas under the curves for cholesterol, coprostanol, and lathosterol. The aqueous residue from above was filtered, washed, dried, resuspended in water, and applied to prewashed C18 Bond Elut columns (Varian Inc., Palo Alto, Calif.). Bile acids were eluted from the columns with methanol, concentrated and quantitated by colorimetric assay (Trinity Biotech). To measure fecal sterol esters, ground fecal samples were resuspended in water, extracted with petroleum ether, concentrated, resolved by TLC as above and visualized at 80° C. after staining with 10% phosphomolybdic acid in ethanol, or bands were scraped and quantitated by scintillation spectrometry.
The effect of (1,5-dimethylhexyl)carbamic acid 4-phenoxyphenyl ester on cholesterol disposal has been measured in C57BL/6 mice. Baseline daily fecal cholesterol disposal by chow-fed mice was measured over 3 days using established methods. Thereafter, the same mice were fed a chow diet to which had been added 1 milligram of (1,5-dimethylhexyl)carbamic acid 4-phenoxyphenyl ester per gram of food. The average body weight of the mice was 24 grams. Mice of this size are known to eat between 3.5 and 4 grams of chow per day. Thus, the amount of inhibitor consumed was between 3.5 and 4.0 milligrams per mouse per day or between 146 and 167 milligrams per kilogram of bodyweight. After eating inhibitor-containing diet for 2 weeks, daily fecal cholesterol excretion was again measured over 3 days. […] The average excretion at baseline was 48.9±11.3 micrograms per day per gram bodyweight (range 28.6 to 71.8), which increased to 62.1±10.4 micrograms per day per gram bodyweight (range 45.3 to 89.1) after treatment. The average change per mouse was +33.0% (range −19.3 to +95.4), with 10 of the 13 mice responding positively, 1 showing no change and 2 responding negatively).

SMILES	VLDL (CEL [1])	increase in HDL cholesterol (CEL [1])	ratio of HDL:LDL (CEL [1])	average change per mouse in cholesterol excretion from baseline (CEL [2]; 1 mg/g chow, 2 weeks, n=13, range −19.3 to +95.4)	mice responding positively (increased cholesterol excretion) (CEL [2]; 1 mg/g chow, 2 weeks, 1 no change, 2 negative)	cholesterol excretion, paired data analysis vs baseline (CEL [2]; 1 mg/g chow, 2 weeks, P=0.01)	average increase in cholesterol excretion over baseline, of those that responded positively (CEL [2]; 1 mg/g chow, 2 weeks, positive responders only) [%]	average fecal cholesterol excretion after treatment (CEL [2]; 1 milligram inhibitor per gram chow for 2 weeks, n=13, baseline 48.9±11.3)
CC(C)CCCC(C)NC(=O)Oc1ccc(Oc2ccccc2)cc1 (centres unmarked) [(1,5-dimethylhexyl)carbamic acid 4-phenoxyphenyl ester]	decreased	15-20%	increased	+33.0%	10 of the 13	significantly increased	46.7	62.1±10.4 micrograms per day per gram bodyweight
CC1CCN(C(=O)Oc2ccc(Oc3ccccc3)cc2)CC1 [4-methyl-1-piperidinecarboxylic acid 4-phenoxyphenyl ester]	decreased	15-20%	increased					

Reference: patent US20100324075A1, “THERAPEUTIC USE OF CARBOXYL ESTER LIPASE INHIBITORS” (UNIVERSITY OF CINCINNATI, priority 2007, published 2010)
